Measured values published in patent publication US10984891B2, “Methods for global RNA-chromatin interactome discovery” (The Regents of the University of California, priority 2016, dated 2021).

Columns and labels:
[1] = system: MDA-MB-231 cells; assay: GRO-seq (global nuclear run-on), transcriptional response to JQ1; assay type: cell-based, Human; details: 500 nM JQ1, 6 h vs 0.05% DMSO, FIG. 12K
Protocol: Cell culture. MDA-MB-231 breast cancer cells (HTB-26 ATCC) and MM.1S multiple myeloma cells were grown at 37° C. and 5% CO2. MDA-MB-231 cells were cultured in Dulbecco's Modified Eagle Medium (Thermo Fisher Sci.) supplemented with 10% fetal bovine serum. MM.1S cells were cultured in RPMI-1640 supplemented with 1% GlutaMAX (Thermo Fisher Sci.) and 10% fetal bovine serum. […] Drosophila S2 cells were cultured in Schneider's Drosophila Medium (Thermo Fisher Sci.) supplemented with 10% fetal bovine serum and 2 mM L-glutamine (Thermo Fisher Sci.), at ambient temperature in ambient CO2.
Functional perturbation of general enhancer activities. […] To quantify transcription activities in an unbiased manner, GRO-seq read densities were initially normalized using total uniquely-mapped read numbers to remove variations between libraries. To minimize the bias introduced by promoter pausing or gene length, only reads that were aligned within the 2 Kb region 1 Kb downstream from the TSS were selected to calculate the transcription activity. For multi-isoform genes, the transcript with highest read counts within the 2 Kb window was selected to represent the gene's transcription activity. Public datasets analyzed. The data of RNA Pol II ChIP-seq for MDA-MB-231 cells were obtained from European Genome-phenome Archive (www.ebi.ac.uk/ega). […]

[2] = system: MM.1S cells; details: cited from earlier work

Cc1sc2c(c1C)C(c1ccc(Cl)cc1)=N[C@@H](CC(=O)OC(C)(C)C)c1nnc(C)n1-2 [JQ1]
transcriptional response to JQ1 (GRO-seq): genes associated with top 10% vs bottom 10% RNA-decorated enhancers [1]: The same conclusions were reached | response of gene expression to JQ1: genes associated with at least one super-enhancer vs only typical enhancers ([2]; GRID-seq inferred connectivity within 50 Kb range, same without range, FIG. 14E, F): more responsive | response of gene expression to JQ1: genes associated with top 10% vs bottom 10% RNA-decorated enhancers ([2]; genes within ±50 Kb of enhancers, FIG. 13E): more responsive
